Results: patent US8952024B2, “Herbicidal pyrimidone derivatives” (E I du Pont de Nemours and Company, priority 2009, dated 2015)

Experiments:
Assay in all cases: Test D pre-/postemergence plant response
Type in all cases: in vivo
Conditions in all cases: Postemergence
[1] = test system: nutsedge (purple nutsedge, Cyperus rotundus)
How it was run: (§1)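 Each species was planted in mixed loam and sand, treated either before emergence or at the 1- to 4-leaf stage, then kept under glass for 14 to 21 days. Plant response was scored by eye from 0 to 100 relative to controls; a dash marks no result.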

[2] = test system: bluegrass (annual bluegrass, Poa annua)
How it was run: as §1

[3] = test system: black mustard (Brassica nigra)
How it was run: as §1

[4] = test system: sandbur (southern sandbur, Cenchrus echinatus)
How it was run: as §1

[5] = test system: morningglory (pitted morningglory, Ipomoea lacunosa)
How it was run: as §1

[6] = test system: chickweed (common chickweed, Stellaria media)
How it was run: as §1

[7] = test system: signalgrass (broadleaf signalgrass, Brachiaria platyphylla)
How it was run: as §1

[8] = test system: Russian thistle (Salsola kali)
How it was run: as §1

[9] = test system: quackgrass (Elytrigia repens)
How it was run: as §1

[10] = test system: large crabgrass (Digitaria sanguinalis)
How it was run: as §1

[11] = test system: ragweed (common ragweed, Ambrosia elatior)
How it was run: as §1

[12] = test system: Italian ryegrass (Lolium multiflorum)
How it was run: as §1

[13] = test system: purslane (common purslane, Portulaca oleracea)
How it was run: as §1

[14] = test system: field bindweed (Convolvulus arvensis)
How it was run: as §1

[15] = test system: spanishneedles (Bidens bipinnata)
How it was run: as §1

[16] = test system: prickly sida (Sida spinosa)
How it was run: as §1

[17] = 125 g ai/ha, scale 0 to 100 (0 no effect, 100 complete control)
[18] = 250 g ai/ha, scale 0 to 100 (0 no effect, 100 complete control)
[19] = 62 g ai/ha, scale 0 to 100 (0 no effect, 100 complete control)

COCCCn1c(-c2cc(F)cc(F)c2)ncc(C(=O)C2=C(O)C3CCC(C3)C2=O)c1=O (stereo not shown) [Compound 244]
98: Plant response rating, Black Mustard [3, 18]
65: Plant response rating, Morningglory ([5]; 31 g ai/ha, scale 0 to 100) | Plant response rating, Russian Thistle [8, 18] | Plant response rating, Quackgrass [9, 18] | Plant response rating, Ragweed ([11]; 31 g ai/ha, scale 0 to 100) | Plant response rating, Field Bindweed [14, 17] | Plant response rating, Spanishneedles ([15]; 31 g ai/ha, scale 0 to 100) | Plant response rating, Spanishneedles [15, 19]
20: Plant response rating, Bluegrass [2, 18] | Plant response rating, Chickweed [6, 19] | Plant response rating, Signalgrass ([7]; 31 g ai/ha, scale 0 to 100) | Plant response rating, Signalgrass [7, 19] | Plant response rating, Russian Thistle ([8]; 31 g ai/ha, scale 0 to 100) | Plant response rating, Quackgrass ([9]; 31 g ai/ha, scale 0 to 100) | Plant response rating, Field Bindweed ([14]; 31 g ai/ha, scale 0 to 100)
40: Plant response rating, Chickweed [6, 17] | Plant response rating, Russian Thistle [8, 19] | Plant response rating, Quackgrass [9, 19] | Plant response rating, Prickly Sida [16, 17]
10: Plant response rating, Nutsedge, Purple [1, 17] | Plant response rating, Bluegrass [2, 17] | Plant response rating, Bluegrass [2, 19]
50: Plant response rating, Black Mustard ([3]; 31 g ai/ha, scale 0 to 100) | Plant response rating, Quackgrass [9, 17] | Plant response rating, Purslane [13, 17] | Plant response rating, Purslane [13, 18] | Plant response rating, Purslane [13, 19]
60: Plant response rating, Chickweed [6, 18] | Plant response rating, Russian Thistle [8, 17] | Plant response rating, Ryegrass, Italian [12, 18] | Plant response rating, Prickly Sida [16, 18]
5: Plant response rating, Ryegrass, Italian ([12]; 31 g ai/ha, scale 0 to 100)
95: Plant response rating, Black Mustard [3, 17]
85: Plant response rating, Ragweed [11, 18]
25: Plant response rating, Signalgrass [7, 17] | Plant response rating, Purslane ([13]; 31 g ai/ha, scale 0 to 100) | Plant response rating, Prickly Sida ([16]; 31 g ai/ha, scale 0 to 100)
70: Plant response rating, Sandbur ([4]; 31 g ai/ha, scale 0 to 100) | Plant response rating, Sandbur [4, 19] | Plant response rating, Morningglory [5, 19] | Plant response rating, Crabgrass, Large ([10]; 31 g ai/ha, scale 0 to 100) | Plant response rating, Ragweed [11, 19] | Plant response rating, Field Bindweed [14, 18]
75: Plant response rating, Black Mustard [3, 19] | Plant response rating, Sandbur [4, 17] | Plant response rating, Sandbur [4, 18] | Plant response rating, Morningglory [5, 17] | Plant response rating, Morningglory [5, 18] | Plant response rating, Crabgrass, Large [10, 17] | Plant response rating, Crabgrass, Large [10, 18] | Plant response rating, Crabgrass, Large [10, 19] | Plant response rating, Spanishneedles [15, 17] | Plant response rating, Spanishneedles [15, 18]
15: Plant response rating, Chickweed ([6]; 31 g ai/ha, scale 0 to 100) | Plant response rating, Ryegrass, Italian [12, 19]
0: Plant response rating, Nutsedge, Purple ([1]; 31 g ai/ha, scale 0 to 100) | Plant response rating, Nutsedge, Purple [1, 19] | Plant response rating, Bluegrass ([2]; 31 g ai/ha, scale 0 to 100)
35: Plant response rating, Nutsedge, Purple [1, 18] | Plant response rating, Signalgrass [7, 18] | Plant response rating, Ryegrass, Italian [12, 17] | Plant response rating, Field Bindweed [14, 19] | Plant response rating, Prickly Sida [16, 19]
80: Plant response rating, Ragweed [11, 17]
